The results in this text go back to article PMC11044166, “Synthesis, DFT Calculations, In Silico Studies, and Antimicrobial Evaluation of Benzimidazole-Thiadiazole Derivatives” (ACS Omega, 2024).

The IC50 is the concentration that gives 50% inhibition. High values mean weaker potency in that assay, low ones greater potency in that assay. As a reminder, the MIC is the least concentration at which growth counts as inhibited. By melting point is commonly meant the temperature of the solid-liquid transition.

Converted amounts (≈) assume the structure as drawn.

Data set [1] deals with L929 fibroblast cell line. Kind of data set: Cytotoxicity MTT assay on healthy cells. In kind it is cell-based. The following applies: L929 healthy mouse fibroblast cells. The method, then: The effect of the compounds between 5a–i on the viability of the L929 cell line was analyzed by MTT assay. The MTT method was performed as previously described.[27]
For orientation: Tetrazolium dyes change colour on reduction, which living cells bring about.

The subject of data set [2] is C. parapsilosis (ATCC 22019). Kind of data set: Antifungal microdilution MIC. In kind it is cell-based. The conditions noted are these: Lodderomyces parapsilosis, ATCC22019; C. parapsilosis (ATCC 22019); read-out: MIC. The method, then: (§1) The antifungal and antibacterial activities of the synthesized compounds (5a–i) were evaluated in vitro against E. coli (ATCC 25922), S. marcescens (ATCC 8100), K. pneumoniae (ATCC 13883), P. aeruginosa (ATCC 27853), E. faecalis (ATCC 2942), B. subtilis, S. aureus (ATCC 29213), S. epidermidis (ATCC 12228), C. albicans (ATCC 24433), C. krusei (ATCC 6258), and C. parapsilosis (ATCC 22019). The final synthesized compounds were evaluated as antibacterial and antifungal references, in comparison to azithromycin, voriconazole, and fluconazole. Tables 1 and 2 provide a summary of the antimicrobial activity test results and the minimum inhibitory concentrations (MICs) of the compounds (5a–i).
(§2) The antimicrobial activity of the final compounds (5a–i) was screened against eight species of pathogenic bacteria and […] (E. coli (ATCC 25922), S. marcescens (ATCC 8100), K. pneumonia (ATCC 13883), P. aeruginosa (ATCC 27853), E. faecalis (ATCC 2942), B. subtilis (NRRL NRS 744), S. aureus (ATCC 29213), S. epidermidis (ATCC 12228), C. albicans (ATCC 24433), C. glabrata (ATCC 90030), C. krusei (ATCC 6258), and C. parapsilosis (ATCC 22 019)) according to the microdilution standard methods CLSI M07-A9 (2012) and NCCLS M27-A2 (2002), as described in the previous study.[25],[26]
On the technique in general: Dilution methods test growth across graded concentrations, often in twofold steps.

The subject of the next data set is C. albicans (ATCC 24433). The data set can be described thus: Antifungal microdilution MIC. In kind it is cell-based. The conditions noted are these: Candida albicans, ATCC24433; C. albicans (ATCC 24433); read-out: MIC. The method, then: as §1, §2
The subject of a further data set is C. krusei (ATCC 6258). Kind of data set: Antifungal microdilution MIC. In kind it is cell-based. The conditions noted are these: Pichia kudriavzevii, ATCC6258; C. krusei (ATCC 6258); read-out: MIC. The method, then: as §1, §2
In a further data set the test system is S. aureus (ATCC 29213). The data set can be described thus: Antibacterial microdilution MIC. In kind it is cell-based. The conditions noted are these: Staphylococcus aureus, ATCC29213; G: S. aureus (ATCC 29213), Gram-positive; read-out: MIC. The method, then: as §1, §2
Data set [3] has as its system K. pneumoniae (ATCC 13883). Kind of data set: Antibacterial microdilution MIC. In kind it is cell-based. The following applies: Klebsiella pneumoniae, ATCC13883; C: K. pneumoniae (ATCC 13883), Gram-negative; read-out: MIC. The method, then: as §1, §2
Another data set has as its system B. subtilis. Kind of data set: Antibacterial microdilution MIC. In kind it is cell-based. The conditions noted are these: Bacillus subtilis; F: B. subtilis, Gram-positive; read-out: MIC. The method, then: as §1, §2
The test system of data set [4] is S. marcescens (ATCC 8100). Kind of data set: Antibacterial microdilution MIC. In kind it is cell-based. The following applies: Serratia marcescens, ATCC8100; B: S. marcescens (ATCC 8100), Gram-negative; read-out: MIC. The method, then: as §1, §2
The next data set has as its system E. coli (ATCC 25922). Kind of data set: Antibacterial microdilution MIC. In kind it is cell-based. The following applies: Escherichia coli, ATCC25922; A: E. coli (ATCC 25922), Gram-negative; read-out: MIC. The method, then: as §1, §2
Data set [5] deals with P. aeruginosa (ATCC 27853). The data set can be described thus: Antibacterial microdilution MIC. In kind it is cell-based. The following applies: Pseudomonas aeruginosa, ATCC27853; D: P. aeruginosa (ATCC 27853), Gram-negative; read-out: MIC. The method, then:
as §1, §2

A further data set has as its system E. faecalis (ATCC 2942). Kind of data set: Antibacterial microdilution MIC. In kind it is cell-based. The conditions noted are these: Enterococcus faecalis, ATCC2942; E: E. faecalis (ATCC 2942), Gram-positive; read-out: MIC. The method, then:
as §1, §2

For data set [6], the system named is S. epidermidis (ATCC 12228). The data set can be described thus: Antibacterial microdilution MIC. The following applies: Staphylococcus epidermidis, ATCC12228; H: S. epidermidis (ATCC 12228), Gram-positive; read-out: MIC. In kind it is cell-based. The method, then:
as §1, §2

As for `CC(C)Nc1nnc(-c2ccc(-c3nc4ccccc4[nH]3)cc2)s1` [Compound 5f, N-Isopropyl-5-(4-(1H-Benzo[d]imidazole-2-Yl)phenyl)-1,3,4-Thiadiazole-2-Amine], the melting point is 324.7 °C. For the same compound, the IC50 in [1] was found to be 175 ± 3.02 µM. In [2], the MIC is 125 µg/mL (≈ 373 µM). Moreover, in the data set on C. albicans (ATCC 24433), the MIC is 3.9 µg/mL (≈ 11.6 µM). Moreover, the MIC in the data set with C. krusei (ATCC 6258) was determined as 125 µg/mL (≈ 373 µM). Also, the MIC with S. aureus (ATCC 29213) was determined as 62.5 µg/mL (≈ 186 µM). Also, the MIC in data set [3] is 125 µg/mL (≈ 373 µM). In addition, the MIC with B. subtilis was determined as 125 µg/mL (≈ 373 µM). In addition, the MIC in data set [4] came to 125 µg/mL (≈ 373 µM). For the same compound, the MIC in the data set with E. coli (ATCC 25922) turned out to be 125 µg/mL (≈ 373 µM). Further, the MIC in data set [5] amounted to 125 µg/mL (≈ 373 µM). The MIC with E. faecalis (ATCC 2942) was 3.9 µg/mL (≈ 11.6 µM). In addition, in [6], the minimal inhibitory concentration (MIC) worked out at 3.9 µg/mL (≈ 11.6 µM).

`CCCNc1nnc(-c2ccc(-c3nc4ccccc4[nH]3)cc2)s1` [Compound 5g, N-Propyl-5-(4-(1H-Benzo[d]imidazole-2-Yl)phenyl)-1,3,4-Thiadiazole-2-Amine] yielded a melting point of 275.2 °C. Besides, the MIC in data set [2] is 125 µg/mL (≈ 373 µM). In addition, the MIC in the data set with C. albicans (ATCC 24433) was 7.81 µg/mL (≈ 23.3 µM). Besides, in the data set on C. krusei (ATCC 6258), the MIC was 125 µg/mL (≈ 373 µM). For the same compound, the MIC with S. aureus (ATCC 29213) was determined as 31.2 µg/mL (≈ 93.2 µM). The minimum inhibitory concentration (MIC) in [3] is 125 µg/mL (≈ 373 µM). Besides, the MIC in the data set on B. subtilis was determined as 125 µg/mL (≈ 373 µM). Moreover, the MIC in data set [4] was 250 µg/mL (≈ 745 µM). Besides, in the data set on E. coli (ATCC 25922), the MIC is 125 µg/mL (≈ 373 µM). For the same compound, the MIC in data set [5] amounted to 125 µg/mL (≈ 373 µM). Moreover, the MIC in the data set with E. faecalis (ATCC 2942) is 15.6 µg/mL (≈ 46.6 µM). In addition, the MIC in data set [6] was 31.2 µg/mL (≈ 93.2 µM).

For `CC(C)CNc1nnc(-c2ccc(-c3nc4ccccc4[nH]3)cc2)s1` [Compound 5i, N-Isobutyl-5-(4-(1H-Benzo[d]imidazole-2-Yl)phenyl)-1,3,4-Thiadiazole-2-Amine], the melting point was determined as 315.6 °C. Besides, the minimal inhibitory concentration (MIC) in data set [2] worked out at 125 µg/mL (≈ 358 µM). The MIC in the data set with C. albicans (ATCC 24433) came to 31.2 µg/mL (≈ 89.4 µM). Further, the MIC in the data set with C. krusei (ATCC 6258) came out at 125 µg/mL (≈ 358 µM). Moreover, the MIC in the data set on S. aureus (ATCC 29213) stood at 62.5 µg/mL (≈ 179 µM). For the same compound, the MIC in [3] amounted to 62.5 µg/mL (≈ 179 µM). Besides, in the data set on B. subtilis, the MIC was 125 µg/mL (≈ 358 µM). Moreover, the minimum inhibitory concentration (MIC) in data set [4] is 62.5 µg/mL (≈ 179 µM). For the same compound, the MIC in the data set with E. coli (ATCC 25922) worked out at 125 µg/mL (≈ 358 µM). Further, the MIC in [5] is 31.2 µg/mL (≈ 89.4 µM). Further, the MIC in the data set on E. faecalis (ATCC 2942) is 15.6 µg/mL (≈ 44.7 µM). The MIC in [6] is 62.5 µg/mL (≈ 179 µM).

For `CC[C@H]1OC(=O)[C@H](C)[C@@H](O[C@H]2C[C@@](C)(OC)[C@@H](O)[C@H](C)O2)[C@H](C)[C@@H](O[C@@H]2O[C@H](C)C[C@H](N(C)C)[C@H]2O)[C@](C)(O)C[C@@H](C)CN(C)[C@H](C)[C@@H](O)[C@]1(C)O` [azithromycin, reference compound], the MIC (in the data set with S. aureus (ATCC 29213); in data set [3]; with B. subtilis; in data set [4]; in the data set with E. coli (ATCC 25922); in data set [5]) was less than 0.97 µg/mL each time. In addition, the MIC (in the data set with E. faecalis (ATCC 2942); in data set [6]) was less than 0.97 µg/mL throughout.

In the case of `OC(Cn1cncn1)(Cn1cncn1)c1ccc(F)cc1F` [fluconazole, reference compound], the MIC (in [2]; with C. albicans (ATCC 24433); in the data set with C. krusei (ATCC 6258)) was 7.81 µg/mL (≈ 25.5 µM) each time.

Regarding `C[C@@H](c1ncncc1F)[C@](O)(Cn1cncn1)c1ccc(F)cc1F` [voriconazole, reference compound], the minimum inhibitory concentration (MIC) (in [2]; in the data set with C. albicans (ATCC 24433); in the data set with C. krusei (ATCC 6258)) was 3.9 µg/mL (≈ 11.2 µM) throughout.
